PMC7070036, “An amber obligate active site-directed ligand evolution technique for phage display” (Nature Communications, 2020)
Several values for one entry are separate records, joined by “and”; a condition that tells them apart may be missing. Equal entries are not always repeated. Starred links: 1 amine or outer side, 2 acyl side, 3 side chain; linkers in the order of their positions; H or OH if unused. Non-standard residues stand in square brackets, D forms with d. Residues, ends and D or L forms follow the SMILES beside them. X1 = CCCC(=S)NCCCC[C@H](N[*:1])C(=O)[*:2]; Abu = CC[C@H](N)C(=O)O

Biological target: T1, SIRT2 (Homo sapiens, UniProt Q8IXJ6)
T1 sequence (Q8IXJ6 1-389): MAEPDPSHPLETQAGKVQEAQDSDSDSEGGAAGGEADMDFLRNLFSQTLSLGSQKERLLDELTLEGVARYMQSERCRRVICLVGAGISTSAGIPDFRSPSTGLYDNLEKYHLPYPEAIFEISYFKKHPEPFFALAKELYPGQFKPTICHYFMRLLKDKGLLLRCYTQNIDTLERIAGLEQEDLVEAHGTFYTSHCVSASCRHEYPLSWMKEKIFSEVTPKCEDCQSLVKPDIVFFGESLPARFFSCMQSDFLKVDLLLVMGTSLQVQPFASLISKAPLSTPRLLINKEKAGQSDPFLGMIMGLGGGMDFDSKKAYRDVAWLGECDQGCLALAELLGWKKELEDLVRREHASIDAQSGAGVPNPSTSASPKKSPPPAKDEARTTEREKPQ
Experiment: Continuous fluorogenic sirtuin inhibition assay, SIRT2 (tBuK peptides, TB)
Type: biochemical
Details: for IC50: 0.25 µM SIRT2, 1 mM NAD+, 5 µM fluorogenic substrate, 15 min preincubation, n = 2, read-out: IC50
Protocol: The continuous assay for comparing isoform specificity of S2P04 was performed using the universal fluorogenic sirtuin substrate described by Schuster et al.[41]. Briefly, the inhibition reactions were performed in 50-µL volumes at 37 °C in black, half-area, 96-well plates. The sirtuin enzyme (0.25 µM) was preincubated with different concentrations of the peptide S2P04 (0.0064–50 µM for SIRT1 and SIRT2, 0.5–100 µM for SIRT3) or TB (0.16–150 µM for SIRT1–SIRT3), and 1 mM NAD^+ in assay buffer (20 mM Tris, pH 7.8, 150 mM NaCl, 5 mM MgCl2, and 1 mM DTT) for 15 min. Following incubation, the reaction started with the addition of the fluorogenic substrate (5 µM), and product formation was monitored by measuring the fluorescence intensity every 20 s for 5 min (SIRT2) or 30 min (SIRT1 and SIRT3) in a BioTek Synergy H1 microplate reader at λex = 320 nm and λem = 408 nm (gain = 130 and read height = 7 mm). Initial rates of product formation were determined by a linear regression of the plot of fluorescence intensity vs. time and normalized relative to 0% (max inhibitor) and 100% (no inhibitor) controls. The assay was repeated to determine the IC50 values of all BuK peptides for SIRT2. IC50 values were determined by nonlinear regression of the plot of the normalized initial rate vs. inhibitor concentration using GraphPad Prism. The determined IC50 values are provided in Supplementary Table 2, and inhibition curves can be seen in Supplementary Fig. 20.

[1] = inhibitor 0.0064 µM, single trials
[2] = inhibitor 0.0064 µM, single trials, 0.0064 µM
[3] = inhibitor 0.032 µM, single trials
[4] = inhibitor 0.032 µM, single trials, 0.032 µM
[5] = inhibitor 0.5 µM, single trials
[6] = inhibitor 0.5 µM, single trials, 0.5 µM
[7] = inhibitor 1 µM, single trials, 1 µM
[8] = inhibitor 2 µM, single trials, 2 µM
[9] = inhibitor 4 µM, single trials, 4 µM
[10] = inhibitor 50 µM, single trials, 50 µM

Structure (SMILES) | IC50 | activity at 0.0064 µM [1] | %Activity, SIRT2 [2] | activity at 0.032 µM [3] | %Activity, SIRT2 [4] | activity at 0.5 µM [5] | %Activity, SIRT2 [6] | activity at 1 µM (inhibitor 1 µM, single trials) | %Activity, SIRT2 [7] | activity at 2 µM (inhibitor 2 µM, single trials) | %Activity, SIRT2 [8] | activity at 4 µM (inhibitor 4 µM, single trials) | %Activity, SIRT2 [9] | %Activity, SIRT2 [10] | also measured
CCCC(=S)NCCCC[C@H](NC(=O)[C@@H](NC(=O)[C@@H](NC(=O)[C@H](CS)NC(C)=O)[C@@H](C)O)C(C)C)C(=O)N[C@H](C(N)=O)[C@@H](C)CC [Ac-S2P04-5-tBu] (Ac-CTV[X1]I-NH2) | 0.191 ± 0.009 µM | 104% | 111.5% | 89.7% | 105.63% | 12.5% | 12.664% | 5.39% | 6.0395% | 3.09% | 4.8945% | 3.78% | 3.4595% | -0.7428% and 1.396% | –
CCCC(=S)NCCCC[C@H](NC(=O)[C@@H](NC(=O)[C@@H](NC(=O)[C@@H](N)CS)[C@@H](C)O)C(C)C)C(=O)N[C@H](C(=O)N[C@@H](CO)C(=O)N[C@@H](CC(C)C)C(N)=O)[C@@H](C)O [S2P03-tBuK] (H-CTV[X1]TSL-NH2) | 0.068 ± 0.005 µM | 98.4% | 108.62% | 83.5% | 92.999% | – | 2.6542% and 5.9955% | – | 1.6503% and 4.1115% | 1.28% | 2.2764% | – | -0.1595% and 1.9208% | 2.8758% and -0.3176% | –
CCCC(=S)NCCCC[C@H](NC(=O)[C@@H](NC(=O)[C@@H](NC(=O)[C@@H](N)CC)[C@@H](C)O)C(C)C)C(=O)N[C@H](C(N)=O)[C@@H](C)CC [S2P04(Abu)-5-tBuK] (H-[Abu]TV[X1]I-NH2) | 0.119 ± 0.003 µM | – | – | – | – | 10% | – | 6.61% | – | 4.66% | – | 3.95% | – | – | %Activity, SIRT2 (inhibitor 0.0064 µM, single trials, listed as S2P04-5-Abu-tBu, 0.0064 µM): 97.908% and 63.307%; %Activity, SIRT2 (inhibitor 0.032 µM, single trials, listed as S2P04-5-Abu-tBu, 0.032 µM): 79.071% and 55.539%; %Activity, SIRT2 (inhibitor 0.5 µM, single trials, listed as S2P04-5-Abu-tBu, 0.5 µM): 11.559%; %Activity, SIRT2 (inhibitor 1 µM, single trials, listed as S2P04-5-Abu-tBu, 1 µM): 4.9054%; %Activity, SIRT2 (inhibitor 2 µM, single trials, listed as S2P04-5-Abu-tBu, 2 µM): 4.1695%; %Activity, SIRT2 (inhibitor 4 µM, single trials, listed as S2P04-5-Abu-tBu, 4 µM): 3.2715%; activity at 50 µM (inhibitor 50 µM, single trials): 1.5%; %Activity, SIRT2 (inhibitor 50 µM, single trials, listed as S2P04-5-Abu-tBu, 50 µM): 1.1019%
